In ChEMBL document CHEMBL4033638, “Effect of natural and semi-synthetic cadinanes from Heterotheca inuloides on NF-κB, Nrf2 and STAT3 signaling pathways and evaluation of their in vitro cytotoxicity in human cancer cell lines” (Bioorg Med Chem, 2017):
The source made the active and inactive calls. The rule behind the calls is not given here.

Experiments:
[1] = Inhibition of TNFalpha-stimulated NFkappaB (unknown origin) expressed in mouse NIH-3T3-KBFLuc cells at 50 uM after 6 hrs by luciferase reporter gene assay relative to control; assay type: cell-based; details: Homo sapiens
[2] = target: T1, Nuclear factor erythroid 2-related factor 2 (Homo sapiens) (UniProt Q16236); test: Activation of Nrf2 in human HaCaT-ARE-Luc cells at 50 uM after 6 hrs by luciferase reporter gene assay relative to control; assay type: cell-based
T1 sequence (whole entry): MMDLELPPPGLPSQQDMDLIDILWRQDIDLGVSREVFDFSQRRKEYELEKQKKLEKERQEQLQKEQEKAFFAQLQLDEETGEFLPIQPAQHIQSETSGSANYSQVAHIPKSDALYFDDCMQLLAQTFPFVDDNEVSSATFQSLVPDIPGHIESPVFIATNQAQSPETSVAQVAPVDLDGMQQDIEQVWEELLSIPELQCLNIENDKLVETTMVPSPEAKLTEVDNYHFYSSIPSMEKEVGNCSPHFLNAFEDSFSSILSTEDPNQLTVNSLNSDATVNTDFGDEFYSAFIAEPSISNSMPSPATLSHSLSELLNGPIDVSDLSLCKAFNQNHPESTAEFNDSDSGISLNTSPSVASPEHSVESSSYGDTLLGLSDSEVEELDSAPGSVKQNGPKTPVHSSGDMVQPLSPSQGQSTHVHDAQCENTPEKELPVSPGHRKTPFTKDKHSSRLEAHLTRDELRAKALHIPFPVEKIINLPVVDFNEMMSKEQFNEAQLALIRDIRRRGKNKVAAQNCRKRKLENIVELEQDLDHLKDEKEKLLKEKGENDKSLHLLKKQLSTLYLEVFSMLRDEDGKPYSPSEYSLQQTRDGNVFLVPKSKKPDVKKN

[3] = target: Signal transducer and activator of transcription 3 (Homo sapiens) (UniProt P40763); test: Inhibition of IFNgamma-stimulated STAT3 (unknown origin) activation expressed in human HeLa cells at 50 uM after 6 hrs by luciferase reporter gene assay relative to control; assay type: cell-based
Chain of Signal transducer and activator of transcription 3 (Homo sapiens) (P40763 whole entry): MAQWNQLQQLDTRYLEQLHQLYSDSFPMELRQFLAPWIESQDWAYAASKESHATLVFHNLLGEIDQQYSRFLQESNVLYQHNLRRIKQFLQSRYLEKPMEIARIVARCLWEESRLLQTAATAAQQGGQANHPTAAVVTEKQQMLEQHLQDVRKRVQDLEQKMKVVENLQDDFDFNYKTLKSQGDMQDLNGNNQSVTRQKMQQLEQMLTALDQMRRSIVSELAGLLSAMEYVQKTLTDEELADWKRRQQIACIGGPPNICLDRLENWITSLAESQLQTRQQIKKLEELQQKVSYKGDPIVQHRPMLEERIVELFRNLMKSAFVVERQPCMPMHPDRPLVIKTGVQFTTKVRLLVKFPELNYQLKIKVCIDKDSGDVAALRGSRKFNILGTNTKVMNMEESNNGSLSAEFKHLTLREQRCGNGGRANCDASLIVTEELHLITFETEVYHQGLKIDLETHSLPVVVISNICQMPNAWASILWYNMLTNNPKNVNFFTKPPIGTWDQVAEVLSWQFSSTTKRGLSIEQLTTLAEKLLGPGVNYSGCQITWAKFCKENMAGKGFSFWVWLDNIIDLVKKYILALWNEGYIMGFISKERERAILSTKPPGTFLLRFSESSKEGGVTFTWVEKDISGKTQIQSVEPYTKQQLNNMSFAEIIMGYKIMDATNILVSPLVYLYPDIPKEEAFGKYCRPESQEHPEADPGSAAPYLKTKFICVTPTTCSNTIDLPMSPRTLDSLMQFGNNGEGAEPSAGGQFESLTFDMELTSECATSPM

[4] = test system: U-251; test: Antiproliferative activity against human U251 cells at 50 uM after 48 hrs by sulforhodamine B assay relative to control; assay type: functional; details: U-251, 48 h
[5] = test system: U-251; test: Antiproliferative activity against human U251 cells after 48 hrs by sulforhodamine B assay; assay type: functional, cell-based; details: U-251, 48 h
[6] = test system: PC-3; test: Antiproliferative activity against human PC3 cells at 50 uM after 48 hrs by sulforhodamine B assay relative to control; assay type: functional; details: PC-3, 48 h
[7] = test system: PC-3; test: Antiproliferative activity against human PC3 cells after 48 hrs by sulforhodamine B assay; assay type: functional, cell-based; details: PC-3, 48 h
[8] = test system: K562; test: Antiproliferative activity against human K562 cells at 50 uM after 48 hrs by sulforhodamine B assay relative to control; assay type: functional; details: K562, 48 h
[9] = test system: K562; test: Antiproliferative activity against human K562 cells after 48 hrs by sulforhodamine B assay; assay type: functional, cell-based; details: K562, 48 h
[10] = test system: HCT-15; test: Antiproliferative activity against human HCT15 cells at 50 uM after 48 hrs by sulforhodamine B assay relative to control; assay type: functional; details: HCT-15, 48 h
[11] = test system: HCT-15; test: Antiproliferative activity against human HCT15 cells after 48 hrs by sulforhodamine B assay; assay type: functional, cell-based; details: HCT-15, 48 h
[12] = test system: MCF7; test: Antiproliferative activity against human MCF7 cells at 50 uM after 48 hrs by sulforhodamine B assay relative to control; assay type: functional; details: MCF7, 48 h
[13] = test system: MCF7; test: Antiproliferative activity against human MCF7 cells after 48 hrs by sulforhodamine B assay; assay type: functional, cell-based; details: MCF7, 48 h
[14] = test system: SK-LU-1; test: Antiproliferative activity against human SK-LU-1 cells at 50 uM after 48 hrs by sulforhodamine B assay relative to control; assay type: functional; details: for inhibition at 50 µM: SK-LU-1, 48 h
[15] = test system: SK-LU-1; test: Antiproliferative activity against human SK-LU-1 cells after 48 hrs by sulforhodamine B assay; assay type: functional, cell-based; details: SK-LU-1, 48 h
[16] = Cytotoxicity against human gingival fibroblasts assessed as decrease in cell viability at 50 uM after 48 hrs by sulforhodamine B dye-based assay relative to control; details: gingival fibroblast
[17] = Inhibition of TNFalpha-stimulated NFkappaB (unknown origin) expressed in mouse NIH-3T3-KBFLuc cells preincubated for 15 mins followed by TNFalpha stimulation for 6 hrs by luciferase reporter gene assay; assay type: cell-based; details: Homo sapiens
[18] = test system: NIH3T3; test: Cytotoxicity against mouse NIH/3T3 cells infected with lentivirus encoding nuclear restricted red fluorescent protein assessed as reduction in cell viability up to 100 uM after 6 hrs by microscopic method; assay type: cell-based; details: nih3t3, 6 h
[19] = Cytotoxicity against human gingival fibroblasts assessed as decrease in cell viability at 50 uM after 48 hrs by sulforhodamine B dye-based assay; details: gingival fibroblast
[20] = test system: HaCaT; test: Induction of ROS accumulation in human HaCaT cells at 10 to 100 uM by CM-H2DCFDA dye-based fluorescence assay; assay type: functional, cell-based
[21] = organism: Mus musculus; test: Inhibition of IKK in mouse NIH-3T3-KBF-Luc cells assesed as downregulation of TNFalpha-stimulated phospho-IkappaBalpha protein expression levels at 10 to 100 uM preincubated for 15 mins followed by TNFalpha stimulation for 20 mins by Western blot analysis
[22] = test system: HaCaT; test: Antioxidant activity in human HaCaT cells assessed as inhibition of TBHP-induced ROS accumulation by measuring ROS level at 10 uM preincubated with cells followed by TBHP addition by CM-H2DCFDA dye-based fluorescence assay relative to control; assay type: functional; set-up: scale not given: the % may be the effect or the level left
[23] = test system: HaCaT; test: Antioxidant activity in human HaCaT cells assessed as inhibition of TBHP-induced ROS accumulation by measuring ROS level at 25 uM preincubated with cells followed by TBHP addition by CM-H2DCFDA dye-based fluorescence assay relative to control; assay type: functional; set-up: scale not given: the % may be the effect or the level left
[24] = test system: HaCaT; test: Antioxidant activity in human HaCaT cells assessed as inhibition of TBHP-induced ROS accumulation by measuring ROS level at 50 uM preincubated with cells followed by TBHP addition by CM-H2DCFDA dye-based fluorescence assay relative to control; assay type: functional; set-up: scale not given: the % may be the effect or the level left
[25] = test system: HaCaT; test: Antioxidant activity in human HaCaT cells assessed as inhibition of TBHP-induced ROS accumulation by measuring ROS level at 75 uM preincubated with cells followed by TBHP addition by CM-H2DCFDA dye-based fluorescence assay relative to control; assay type: functional; set-up: scale not given: the % may be the effect or the level left
[26] = test system: HaCaT; test: Antioxidant activity in human HaCaT cells assessed as inhibition of TBHP-induced ROS accumulation by measuring ROS level at 100 uM preincubated with cells followed by TBHP addition by CM-H2DCFDA dye-based fluorescence assay relative to control; assay type: functional; set-up: scale not given: the % may be the effect or the level left

SMILES	fold change (FC) [2]	inhibition [3] [%]	IC50 [5] [µM]	IC50 [7] [µM]	IC50 [9] [µM]	IC50 [11] [µM]	IC50 [13] [µM]	IC50 [15] [µM]	inhibition [1] [%]	inhibition at 50 µM [4] [%]	inhibition at 50 µM [6] [%]	inhibition at 50 µM [8] [%]	inhibition at 50 µM [10] [%]	inhibition at 50 µM [12] [%]	inhibition at 50 µM [14] [%]	also measured
Cc1cc2c(C(C)C)ccc(C)c2cc1O	1.7	3.5							61.5							IC50 [17]: 16.5 µM; Activity [18]: Non-Toxic
CC1=CC[C@H](C(C)C)c2cc(C)c(O)cc21	3.1	2.1							50.8							IC50 [17]: 72 µM; Activity [18]: Non-Toxic
CC1=CC[C@H](C(C)C)c2cc(C)c(OC(=O)Nc3ccccc3)cc21	1.6	3.3	0.46	7.93	0.3	0.03	4.05	0.12	4.2	100	93.2	92.6	92	75.1	100	Activity [16]: 38.24%
Cc1cc2c(C(C)C)ccc(C)c2cc1OC(=O)Nc1ccccc1	1.4	3	15.8	8.62	14	3.88		10.1	13.3	100	44.7	100	84.7	100	90.4	Activity [19]: Non-Toxic
Cc1cc2c(C(C)C)ccc(C)c2cc1OC(=O)c1ccc(Cl)cc1	1.7	1.3	35.5	44	19.1	34	32.1	23.9	15.5	92.8	81.1	95.4	82.2	76	100	
Cc1ccc(C(=O)Oc2cc3c(C)ccc(C(C)C)c3cc2C)cc1	1.8	2.9	22.8	23.7	8.37	12	8.2	10.2	30.3	100	72.3	100	86.5	90.2	100	Activity [16]: 13.37%

Now from value to compound, other results behind:

fold change (FC) [2]	inhibition [3] [%]	IC50 [5] [µM]	IC50 [7] [µM]	IC50 [9] [µM]	IC50 [11] [µM]	IC50 [13] [µM]	IC50 [15] [µM]	SMILES	inhibition [1] [%]	inhibition at 50 µM [4] [%]	inhibition at 50 µM [6] [%]	inhibition at 50 µM [8] [%]	inhibition at 50 µM [10] [%]	inhibition at 50 µM [12] [%]	inhibition at 50 µM [14] [%]	also measured
1.8	1.6	7.75	17.6	2.28	7.88	7.9	9.37	Cc1cc2c(C(C)C)ccc(C)c2cc1OC(=O)c1ccc([N+](=O)[O-])cc1	18.5	100	100	100	97.6	100	100	Activity [16]: 43.03%
8.5	1.6		42.5		56.3		42.9	CC1=CC[C@H](C(C)C)c2cc(C)c(OC(=O)c3ccc([N+](=O)[O-])cc3)cc21	7.2	16.8	36.7	89	67.8	72.9	47.5	
1.8	2		47.1					Cc1cccc(C(=O)Oc2cc3c(C)ccc(C(C)C)c3cc2C)c1	4.8	5.2	52.4	17.1	27.6	50.4		inhibition [14]: inactive
9.4	3.1			30.9	40.3		33.9	CC1=CC[C@H](C(C)C)c2cc(C)c(OC(=O)c3ccc(C)cc3)cc21	76	67.7	49.6	100	78.9	65	85.4	IC50 [17]: 47.1 µM; Activity [20]: inactive; inhibition [21]: Active; Activity [18]: Non-Toxic; Activity [22]: 74.7%; Activity [23]: 64.5%; Activity [24]: 55.8%; Activity [25]: 52%; Activity [26]: 25.9%
1.7	0.9		34					Cc1cc2c(C(C)C)ccc(C)c2cc1OC(=O)c1ccc(C(F)(F)F)cc1	5.2	16.5	100	45.1	55.6	16.8	28.7	
